Consider 26 molecules from patent publication US10385069B2, “Imidazo[2,1-B]thiazole and 5,6-dihydroimidazo[2,1-B]thiazole derivatives useful as S100-inhibitors” (Active Biotech AB, priority 2015, dated 2019).

The target of the experiment is T1, interaction between biotinylated human S100A9 and human RAGE-Fc (Homo sapiens, UniProt P06702).
T1 construct: made in house; host or cells: E. coli
T1 sequence (P06702 1-114): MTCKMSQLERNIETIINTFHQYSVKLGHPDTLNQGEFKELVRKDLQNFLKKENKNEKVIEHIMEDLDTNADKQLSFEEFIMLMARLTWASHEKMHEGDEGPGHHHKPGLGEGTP
Description: AlphaScreen inhibition assay, biot-hS100A9:hRAGE-Fc. The following applies: biot-hS100A9 pre-incubated with compound 1 h, assay buffer with CaCl2 and ZnCl2. The class given is binding. The source says:
Inhibition Assay, Biot-hS100A9:hRAGE-Fc
The AlphaScreen (Amplified Luminescent Proximity Homogeneous Assay) contains two types of beads, Alpha Donor beads and Acceptor beads (PerkinElmer). Upon laser excitation at 680 nm a photosensitizer in the Donor bead converts ambient oxygen to a more excited singlet state. The singlet oxygen molecule diffuses (maximum 200 nm) to react with a thioxene derivative in the Acceptor bead and generates a chemiluminescence reaction. Fluorophores in the Acceptor bead subsequently emit light at 520-620 nm which can be detected in the EnVision® Multilabel plate Reader (PerkinElmer). The beads are light sensitive and all work with the beads is performed under subdued light conditions or using green filters on light sources (Roscolux Chroma Green #389, Rosco).
In the AlphaScreen Inhibition Assay described here, protein A (Staphylococcus aureus) conjugated Acceptor beads are used together with streptavidin coated Donor beads (Perkin Elmer 6760617M). The Acceptor beads are pre-incubated with Fc-tagged recombinant human RAGE (rhRAGE-Fc) allowing binding of the rhRAGE-Fc to protein A on the beads. Biotinylated human S100A9 (biot-hS100A9) is pre-incubated with the low molecular test compounds. The pre-mixes are then added to the wells of a micro-plate and incubated allowing interaction between biot-hS100A9 and rhRAGE-Fc. Subsequent addition of streptavidin coated Donor beads causes binding of the streptavidin to the biotinylated hS100A9. After an additional incubation the signal is measured.
Without inhibitory compounds, the interaction of biot-hS100A9 to rhRAGE-Fc will bring the Acceptor and Donor beads in close proximity thus generating a high signal. With an inhibitor present the complex will not form resulting in a decreased signal. The assay is illustrated in FIG. 1.
Chemicals and Reagents. • AlphaScreen® General IgG (Protein A) Detection Kit, (PerkinElmer 6760617M) • HBS-P buffer (GE Healthcare, BR-1003-68) • HBS-N buffer (GE Healthcare, BR-1003-69) • CaCl2 in HBS-P • ZnCl2 in Milli-Q water • DMSO • Biotinylated hS100A9, (biotinylated via cystein by EZ-link Iodoacetyl-PEG2-Biotin reagent (Pierce no. 21334), in HBS-N • rhRAGE-Fc (R&D Systems, 1145-RG-50), in HBS-P
The AlphaScreen assay method is used for screening of the inhibitory effect of different compound samples at fixed concentrations or for IC50 determination by varying the compound concentrations. Samples of test compounds and references are prepared from solutions in DMSO. Relevant reference inhibitors and DMSO are used as controls for defined inhibition and non-inhibition, respectively in the assay. The percent inhibition in assay for test compounds and references are calculated by comparing their obtained assay signals with the signal values for the control with only DMSO (no compound).
Assay concentration of biotinylated hS100A9 and rhRAGE-Fc are batch dependent, and are determined and defined by separate cross-titration experiments using this AlphaScreen inhibition method to verify the optimal setup regarding signal strength and achievement of a defined inhibition with relevant reference compounds. The Final assay concentrations of Acceptor and Donor beads are 20 μg/mL.
Assay buffer is prepared by adding CaCl2 and ZnCl2 to HBS-P and is used freshly prepared in the experiment.
Biotin-hS100A9 solution for the experiment is prepared by dilution of appropriate amount of stock solution biot-hS100A9 in assay buffer (with CaCl2 and ZnCl2) and incubation in room temperature for 30 minutes.
rhRAGE-Fc solution for the experiment is prepared by dilution appropriate amount of rhRAGE-Fc stock in assay buffer.
Protein A Acceptor beads are diluted in assay buffer and are added to an equal volume of the prepared diluted rhRAGE-Fc solution. The beads are light sensitive. The vial is covered with aluminum foil and incubated at room temperature in the dark until biot-hS100A9+compound incubation is finished (see below). […]
A general note: Bead proximity is the source of the signal in Alpha formats.
As a reminder, the IC50 is the concentration at which inhibition is half-maximal. Consider `Cc1ccc2c(c1)sc1nc(C(=O)O)cn12` [Example 11, 10-Methyl-7-thia-2,5-diazatricyclo[6.4.0.0^2,6]dodeca-1(8),3,5,9,11-pentaene-4-carboxylic acid], for which the IC50 is 5020 nM.

Turning to `COc1c(Cl)ccc2c1sc1nc(C(=O)O)cn12` [Example 217, 10-Chloro-9-methoxy-7-thia-2,5-diazatricyclo[6.4.0.0^2,6]dodeca-1(8),3,5,9,11-pentaene-4-carboxylic acid], the IC50 turned out to be 1090 nM. For `O=C(O)[C@@H]1CN2C(=N1)Sc1c2ccc(F)c1Cl` (single isomer, unassigned) [Example 236], the IC50 was found to be 1300 nM. Take `CC(C)(C)C1CCc2c(sc3nc(C(=O)O)c(Br)n23)C1` (centres unmarked) [Example 253, 3-Bromo-10-tert-butyl-7-thia-2,5-diazatricyclo[6.4.0.0^2,6]dodeca-1(8),3,5-triene-4-carboxylic acid]: the IC50 was 1680 nM.

Regarding `CS(=O)(=O)N1CC(c2c(C(=O)O)nc3sc4c(Cl)c(F)ccc4n23)C1` [Example 293, 9-Chloro-10-fluoro-3-(1-methanesulfonylazetidin-3-yl)-7-thia-2,5-diazatricyclo[6.4.0.0^2,6]dodeca-1(8),3,5,9,11-pentaene-4-carboxylic acid], the IC50 came out at 500 nM.

For `O=C(O)c1cn2c(n1)sc1ccc(Cl)cc12` [Example 12, 11-Chloro-7-thia-2,5-diazatricyclo[6.4.0.0^2,6]dodeca-1(8),3,5,9,11-pentaene-4-carboxylic acid], the IC50 was determined as 5610 nM.

As for `CC1CCCc2c1sc1nc(C(=O)NS(C)(=O)=O)cn21` (single isomer, unassigned) [Example 48, N-Methanesulfonyl-9-methyl-7-thia-2,5-diazatricyclo[6.4.0.0^2,6]dodeca-1(8),3,5-triene-4-carboxamide], the 50% inhibitory concentration (IC50) turned out to be 1200 nM. In the case of `CC(C)(C)c1ccc2c(c1)sc1nc(C(=O)O)cn12` [Example 206, 10-tert-Butyl-7-thia-2,5-diazatricyclo[6.4.0.0^2,6]dodeca-1(8),3,5,9,11-pentaene-4-carboxylic acid] it was 960 nM; in that of `COC(=O)CCS(=O)(=O)NC(=O)c1cn2c(n1)sc1c(Cl)c(Cl)ccc12` [Example 27, Methyl 3-[({9,10-dichloro-7-thia-2,5-diazatricyclo[6.4.0.0^2 6]dodeca-1(8),3,5,9,11-pentaen-4-yl}formamido)sulfonyl]propanoate], 70 nM. On to `Cc1c(C(=O)O)nc2sc3c(n12)CC(C)(C)CC3(C)C` [Example 245, 3,9,9,11,11-Pentamethyl-7-thia-2,5-diazatricyclo[6.4.0.0^2,6]dodeca-1(8),3,5-triene-4-carboxylic acid], for which the concentration for half-maximal inhibition (IC50) is 270 nM. `CC(C)(C)C1CCc2c(sc3nc(C(=O)O)c(NS(C)(=O)=O)n23)C1` (centres unmarked) [Example 196, 10-tert-Butyl-3-methanesulfonamido-7-thia-2,5-diazatricyclo[6.4.0.0^2,6]dodeca-1(8),3,5-triene-4-carboxylic acid]: the half-maximal inhibitory concentration (IC50) turned out to be 490 nM. Regarding `C=C(C)c1c(C(=O)O)nc2sc3c(n12)CC(C)(C)CC3(C)C` [Example 287, 9,9,11,11-Tetramethyl-3-(prop-1-en-2-yl)-7-thia-2,5-diazatricyclo[6.4.0.0^2,6]dodeca-1(8),3,5-triene-4-carboxylic acid], the half-inhibitory concentration (IC50) amounted to 760 nM.

Consider `O=C(O)c1nc2sc3cc(OC(F)(F)F)ccc3n2c1Br` [Example 17, 3-Bromo-10-(trifluoromethoxy)-7-thia-2,5-diazatricyclo[6.4.0.0^2,6]dodeca-1(8),3,5,9,11-pentaene-4-carboxylic acid], for which the IC50 stood at 3410 nM. In the case of `O=C(O)c1cn2c3c(sc2n1)CCCC3` [Example 31, 7-Thia-2,5-diazatricyclo[6.4.0.0^2,6]dodeca-1(8),3,5-triene-4-carboxylic acid] it was 2390 nM; in that of `O=C(O)c1cn2c(n1)sc1c(Cl)c(Cl)cc(OCCN3CCOCC3)c12` [Example 241, 9,10-Dichloro-12-[2-(morpholin-4-yl)ethoxy]-7-thia-2,5-diazatricyclo[6.4.0.0^2,6]dodeca-1(8),3,5,9,11-pentaene-4-carboxylic acid], 690 nM. `O=C(O)c1cn2c(n1)sc1c(Cl)c(N3CC(F)(F)C3)ccc12` [Example 266, 9-Chloro-10-(3,3-difluoroazetidin-1-yl)-7-thia-2,5-diazatricyclo[6.4.0.0^2,6]dodeca-1(8),3,5,9,11-pentaene-4-carboxylic acid]: the IC50 turned out to be 950 nM. With `CC1(C)CCCc2c1sc1nc(C(=O)O)cn21` [Example 43, 9,9-Dimethyl-7-thia-2,5-diazatricyclo[6.4.0.0^2,6]dodeca-1(8),3,5-triene-4-carboxylic acid], the half-inhibitory concentration (IC50) is 1240 nM.

Turning to `CC(=O)N1CCN(c2c(C(=O)O)nc3sc4c(n23)CC(C)(C)CC4(C)C)CC1` [Example 284, 3-(4-Acetylpiperazin-1-yl)-9,9,11,11-tetramethyl-7-thia-2,5-diazatricyclo[6.4.0.0^2,6]dodeca-1(8),3,5-triene-4-carboxylic acid], the IC50 was found to be 700 nM.

Turning to `O=C(O)c1cn2c(n1)sc1cc(OCc3ccccc3)ccc12` [Example 208, 10-(Benzyloxy)-7-thia-2,5-diazatricyclo[6.4.0.0^2,6]dodeca-1(8),3,5,9,11-pentaene-4-carboxylic acid], the IC50 was 2260 nM.

Take `CCN(CC)CCCS(=O)(=O)NC(=O)c1cn2c(n1)sc1c(Cl)c(Cl)ccc12` [Example 29, 9,10-Dichloro-N-[3-(diethylamino)propanesulfonyl]-7-thia-2,5-diazatricyclo[6.4.0.0^2,6]dodeca-1(8),3,5,9,11-pentaene-4-carboxamide]: the concentration for half-maximal inhibition (IC50) was 460 nM. Take `O=C(O)C1(Cc2ccccc2)CN2C(=N1)Sc1c2ccc(F)c1Cl` (centres unmarked) [Example 262, 4-Benzyl-9-chloro-10-fluoro-7-thia-2,5-diazatricyclo[6.4.0.0^2,6]dodeca-1(8),5,9,11-tetraene-4-carboxylic acid]: the IC50 worked out at 770 nM. Take `CC1(C)Cc2c(sc3nc(C(=O)NS(=O)(=O)CCCN4CCOCC4)cn23)C(C)(C)C1` [Example 55, 9,9,11,11-Tetramethyl-N-[3-(morpholin-4-yl)propanesulfonyl]-7-thia-2,5-diazatricyclo[6.4.0.0^2,6]dodeca-1(8),3,5-triene-4-carboxamide]: the half-maximal inhibitory concentration (IC50) turned out to be 550 nM. As to `CC1(C)Cc2c(sc3nc(C(=O)O)c(Cl)n23)C(C)(C)C1` [Example 207, 3-Chloro-9,9,11,11-tetramethyl-7-thia-2,5-diazatricyclo[6.4.0.0^2,6]dodeca-1(8),3,5-triene-4-carboxylic acid], the half-inhibitory concentration (IC50) turned out to be 780 nM.

Turning to `O=C(O)c1cn2c(n1)sc1c(F)c(Cl)ccc12` [Example 3, 10-Chloro-9-fluoro-7-thia-2,5-diazatricyclo[6.4.0.0^2,6]dodeca-1(8),3,5,9,11-pentaene-4-carboxylic acid], the IC50 came to 350 nM. For `O=C(O)c1cn2c(n1)sc1c(Cl)c(Br)ccc12` [Example 243, 10-Bromo-9-chloro-7-thia-2,5-diazatricyclo[6.4.0.0^2,6]dodeca-1(8),3,5,9,11-pentaene-4-carboxylic acid], the IC50 came to 210 nM. Under `CC1(C)Cc2c(sc3nc(C(=O)NS(C)(=O)=O)cn23)C(C)(C)C1` [Example 53, N-Methanesulfonyl-9,9,11,11-tetramethyl-7-thia-2,5-diazatricyclo[6.4.0.0^2,6]dodeca-1(8),3,5-triene-4-carboxamide] stands 480 nM.
